{"source": "patent US20110039770A1", "about": "“INHIBITORS OF PROTEIN KINASE C ISOFORMS AND USES THEREOF” (PHARMAGAP INC., priority 2005, published 2011)", "test_in_all_cases": "PKC isoform protein levels in cancer cell lines after TIM 10 (Western blot)", "type_in_all_cases": "cell-based", "set-up_in_all_cases": "endogenous in cells", "conditions_in_all_cases": "5 mM by pinocytic influx, 24 hrs", "key": {"PKC epsilon": {"biological_target": "T1, PKC epsilon (Homo sapiens, UniProt Q02156)", "T1 sequence (Q02156 1-737)": "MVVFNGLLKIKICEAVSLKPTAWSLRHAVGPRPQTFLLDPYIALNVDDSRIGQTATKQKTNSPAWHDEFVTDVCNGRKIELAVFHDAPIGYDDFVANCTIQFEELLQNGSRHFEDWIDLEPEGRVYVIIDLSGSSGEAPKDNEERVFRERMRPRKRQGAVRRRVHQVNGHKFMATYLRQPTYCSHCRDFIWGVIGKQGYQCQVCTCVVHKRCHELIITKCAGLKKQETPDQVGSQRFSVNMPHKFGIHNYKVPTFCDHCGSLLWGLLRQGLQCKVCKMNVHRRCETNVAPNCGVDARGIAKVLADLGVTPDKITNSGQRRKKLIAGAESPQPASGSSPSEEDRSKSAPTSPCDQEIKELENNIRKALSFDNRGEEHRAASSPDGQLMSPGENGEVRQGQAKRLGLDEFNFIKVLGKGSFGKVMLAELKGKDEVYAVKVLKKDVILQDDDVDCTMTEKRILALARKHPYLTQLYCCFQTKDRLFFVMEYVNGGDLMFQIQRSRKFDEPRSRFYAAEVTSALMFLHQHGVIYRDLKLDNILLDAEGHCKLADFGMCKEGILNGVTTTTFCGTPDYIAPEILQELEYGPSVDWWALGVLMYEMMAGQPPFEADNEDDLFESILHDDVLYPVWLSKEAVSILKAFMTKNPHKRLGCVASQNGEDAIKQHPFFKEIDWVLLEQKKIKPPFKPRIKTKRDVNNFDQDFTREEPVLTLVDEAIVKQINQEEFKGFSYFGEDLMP", "method": "(§1) The effect of compound TIM 10 on the levels of protein for various PKC isoforms was assessed as generally described below in the following human cancer cell lines: MDA MB-231 breast adenocarcinoma cells (ATCC HTB-26); T24 bladder transitional cell carcinoma (ATCC HTB-4); SKOV-3 ovary adenocarcinoma (ATCC HTB-77); MCF-7 breast adenocarcinoma (ATCC HTB-22); Capan-2 pancreatic adenocarcinoma (ATCC HTB-80); NCI-H661 NSCL large cells (ATCC HTB-183); Calu-6 probable lung anaplastic carcinoma (ATCC HTB-56) and Calu-3 lung adenocarcinoma (ATCC HTB-55).\n(§2) Cells representative of the different cancer types were cultured according to ATCC instructions. At subconfluence, the cells were trypsinized and compound 10 (5 mM) was incorporated into the cells by pinocytic influx endocytosis according to the manufacturer's instructions (Molecular Probe). Matching controls were treated accordingly except that vehicle was incorporated instead of compound 10. Following pinocytic influx, the cells were seeded and allowed to grow in fresh medium for 24 hrs. The cell cultures were further extracted using RIPA lysis buffer according to standard protocol. The protein content of each lysate was measured using Bradford protein estimation procedure (BioRad) and normalized. Following addition of sample buffer, the proteins from 15 μl of each extract were separated by electrophoresis, electro-transferred to nitrocellulose membranes and the various isoforms of PKC were detected using appropriate antibodies (Santa Cruz Biotechnology, Inc., CA). The relative intensity of bands of the expected molecular weight was estimated after scanning and the % decrease in the band intensity relative to control was calculated."}, "PKC beta 1": {"biological_target": "PKC beta 1 (Homo sapiens, UniProt P05771)", "sequence (P05771 whole entry)": "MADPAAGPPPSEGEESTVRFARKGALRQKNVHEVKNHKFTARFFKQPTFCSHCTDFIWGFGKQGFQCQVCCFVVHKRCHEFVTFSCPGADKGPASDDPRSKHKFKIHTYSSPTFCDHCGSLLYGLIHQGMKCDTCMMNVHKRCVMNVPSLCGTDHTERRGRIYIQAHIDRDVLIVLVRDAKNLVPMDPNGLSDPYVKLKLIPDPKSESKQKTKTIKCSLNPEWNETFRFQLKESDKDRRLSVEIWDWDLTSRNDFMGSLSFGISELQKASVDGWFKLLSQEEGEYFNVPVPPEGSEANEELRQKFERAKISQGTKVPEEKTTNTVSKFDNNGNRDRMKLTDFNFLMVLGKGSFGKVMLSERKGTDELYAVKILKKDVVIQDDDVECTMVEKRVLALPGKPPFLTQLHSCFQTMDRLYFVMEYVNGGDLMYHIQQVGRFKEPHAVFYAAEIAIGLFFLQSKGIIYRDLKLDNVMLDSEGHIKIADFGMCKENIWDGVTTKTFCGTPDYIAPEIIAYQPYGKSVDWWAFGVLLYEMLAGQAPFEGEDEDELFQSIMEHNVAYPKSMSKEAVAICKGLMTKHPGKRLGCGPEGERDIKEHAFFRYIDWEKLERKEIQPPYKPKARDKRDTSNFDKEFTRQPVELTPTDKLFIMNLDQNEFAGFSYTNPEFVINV", "method": "as §1, §2"}, "PKC delta": {"biological_target": "PKC delta (Homo sapiens, UniProt Q05655)", "sequence (Q05655 whole entry)": "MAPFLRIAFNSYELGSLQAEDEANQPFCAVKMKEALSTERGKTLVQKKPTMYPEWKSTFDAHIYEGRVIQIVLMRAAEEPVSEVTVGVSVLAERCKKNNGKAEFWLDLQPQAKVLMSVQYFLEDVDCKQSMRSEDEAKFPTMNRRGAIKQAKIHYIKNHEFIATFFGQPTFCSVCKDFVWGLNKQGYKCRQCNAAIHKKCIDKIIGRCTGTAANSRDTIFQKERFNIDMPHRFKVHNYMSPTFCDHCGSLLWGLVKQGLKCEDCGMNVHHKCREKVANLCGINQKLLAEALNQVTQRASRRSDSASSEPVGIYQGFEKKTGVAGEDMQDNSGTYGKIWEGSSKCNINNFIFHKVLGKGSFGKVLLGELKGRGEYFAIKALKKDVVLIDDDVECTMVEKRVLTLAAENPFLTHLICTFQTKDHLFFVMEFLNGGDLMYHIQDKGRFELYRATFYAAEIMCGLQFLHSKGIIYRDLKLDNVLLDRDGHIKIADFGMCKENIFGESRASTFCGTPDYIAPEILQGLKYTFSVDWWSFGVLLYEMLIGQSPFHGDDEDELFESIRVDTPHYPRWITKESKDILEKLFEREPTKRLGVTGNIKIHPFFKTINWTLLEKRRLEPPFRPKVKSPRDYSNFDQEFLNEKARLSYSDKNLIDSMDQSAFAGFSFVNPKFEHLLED", "method": "as §1, §2"}, "PKC zeta": {"biological_target": "T2, PKC zeta (Homo sapiens, UniProt Q05513)", "T2 sequence (Q05513 1-592)": "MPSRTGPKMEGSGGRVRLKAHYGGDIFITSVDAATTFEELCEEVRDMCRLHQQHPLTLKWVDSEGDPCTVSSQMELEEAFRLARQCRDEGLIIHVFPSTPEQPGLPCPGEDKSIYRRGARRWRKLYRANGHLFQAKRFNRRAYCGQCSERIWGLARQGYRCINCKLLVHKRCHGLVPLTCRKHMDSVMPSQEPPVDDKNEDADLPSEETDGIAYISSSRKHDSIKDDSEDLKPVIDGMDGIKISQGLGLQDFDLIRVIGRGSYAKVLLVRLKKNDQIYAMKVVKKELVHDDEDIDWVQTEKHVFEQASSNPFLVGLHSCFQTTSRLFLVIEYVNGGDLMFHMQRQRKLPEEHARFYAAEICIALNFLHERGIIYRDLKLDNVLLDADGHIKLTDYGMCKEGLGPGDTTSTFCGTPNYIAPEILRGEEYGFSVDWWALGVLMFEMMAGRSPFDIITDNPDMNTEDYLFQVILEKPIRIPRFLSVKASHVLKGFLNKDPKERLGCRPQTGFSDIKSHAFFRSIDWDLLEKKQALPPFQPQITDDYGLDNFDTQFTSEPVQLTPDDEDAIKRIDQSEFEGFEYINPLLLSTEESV", "method": "as §1, §2"}}, "note": "Where a SMILES comes first, the peptide text is derived from it. The star is where a group is joined. PNA(A) = NCCN(CC(=O)*)C(=O)Cn1cnc2c(N)ncnc21"}
{"smiles": "CC[C@H](C)[C@H](NC(=O)[C@H](CO)NC(=O)[C@@H](NC(=O)CNC(=O)[C@@H](NC(=O)[C@H](CC(C)C)NC(=O)[C@H](CC(N)=O)NC(=O)[C@H](CCC(N)=O)NC(=O)[C@H](C)NC(=O)[C@H](CC(=O)O)NC(=O)[C@H](CCCCN)NC(=O)CNC(=O)CNC(=O)CNC(=O)CNC(=O)CNC(=O)CNC(=O)CNC(=O)[C@H](CC(C)C)NC(=O)[C@H](CCCNC(=N)N)NC(=O)[C@H](Cc1ccccc1)NC(=O)[C@H](CCCCNC(=O)CN(CCN)C(=O)Cn1cnc2c(N)ncnc21)NC(=O)[C@H](CCCNC(=N)N)NC(=O)[C@H](CCCNC(=N)N)NC(=O)[C@H](Cc1ccccc1)NC(C)=O)[C@@H](C)CC)[C@@H](C)CC)C(N)=O", "note": "[TIM 10] (Ac-FRRK(PNA(A))FRLGGGGGGGKDAQNLIGISI-NH2)", "values": [{"measurement": "% decrease PKC-ε band intensity relative to control", "setting": "PKC epsilon; Capan-2", "result": 0.0, "unit": "%"}, {"measurement": "% decrease PKC-ε band intensity relative to control", "setting": "PKC epsilon; MCF-7", "result": 0.0, "unit": "%"}, {"measurement": "% decrease PKC-ε band intensity relative to control", "setting": "PKC epsilon; MDA-MB231", "result": 0.0, "unit": "%"}, {"measurement": "% decrease PKC-βI band intensity relative to control", "setting": "PKC beta 1; Capan-2", "result": 17.5, "unit": "%"}, {"measurement": "% decrease PKC-βI band intensity relative to control", "setting": "PKC beta 1; H661", "result": 3.0, "unit": "%"}, {"measurement": "% decrease PKC-βI band intensity relative to control", "setting": "PKC beta 1; MCF-7", "result": 0.0, "unit": "%"}, {"measurement": "% decrease PKC-βI band intensity relative to control", "setting": "PKC beta 1; MDA-MB231", "result": 0.0, "unit": "%"}, {"measurement": "% decrease PKC-δ band intensity relative to control", "setting": "PKC delta; Calu-3", "result": 22.2, "unit": "%"}, {"measurement": "% decrease PKC-δ band intensity relative to control", "setting": "PKC delta; Calu-6", "result": 18.9, "unit": "%"}, {"measurement": "% decrease PKC-δ band intensity relative to control", "setting": "PKC delta; Capan-2", "result": 53.3, "unit": "%"}, {"measurement": "% decrease PKC-δ band intensity relative to control", "setting": "PKC delta; H661", "result": 0.0, "unit": "%"}, {"measurement": "% decrease PKC-δ band intensity relative to control", "setting": "PKC delta; MCF-7", "result": 21.5, "unit": "%"}, {"measurement": "% decrease PKC-δ band intensity relative to control", "setting": "PKC delta; MDA-MB231", "result": 36.6, "unit": "%"}, {"measurement": "% decrease PKC-δ band intensity relative to control", "setting": "PKC delta; SK-OV-3", "result": 0.0, "unit": "%"}, {"measurement": "% decrease PKC-δ band intensity relative to control", "setting": "PKC delta; T24", "result": 62.2, "unit": "%"}, {"measurement": "% decrease PKC-ζ band intensity relative to control", "setting": "PKC zeta; Capan-2", "result": 0.0, "unit": "%"}, {"measurement": "% decrease PKC-ζ band intensity relative to control, Band 1", "setting": "PKC zeta; H661, Band 1", "result": 13.4, "unit": "%"}, {"measurement": "% decrease PKC-ζ band intensity relative to control, Band 2", "setting": "PKC zeta; H661, Band 2", "result": 0.0, "unit": "%"}, {"measurement": "% decrease PKC-ζ band intensity relative to control", "setting": "PKC zeta; MCF-7", "result": 7.3, "unit": "%"}, {"measurement": "% decrease PKC-ζ band intensity relative to control", "setting": "PKC zeta; MDA-MB231", "result": 0.0, "unit": "%"}, {"measurement": "% decrease PKC-ζ band intensity relative to control", "setting": "PKC zeta; T24", "result": 0.0, "unit": "%"}]}
